Reference: publication PMC12541554, “Production of the Antimicrobial Roseoflavin With Genetically Engineered Corynebacterium glutamicum” (Microbial Biotechnology, 2025)

How the values were obtained:
[1] = molecular target: T1, RibF^Sda (Streptomyces davaonensis, UniProt K4R340); test: fluorescent ADP detection kinase assay, crude extract; assay type: biochemical; settings: ATP co-substrate; crude extract of overexpressing C. glutamicum with native RibF background; 10 min
T1 construct: gene ribC1; overexpressed from pVWEx1 in C. glutamicum wild type; crude extract (host's native RibF also present)
T1 sequence (K4R340 1-319): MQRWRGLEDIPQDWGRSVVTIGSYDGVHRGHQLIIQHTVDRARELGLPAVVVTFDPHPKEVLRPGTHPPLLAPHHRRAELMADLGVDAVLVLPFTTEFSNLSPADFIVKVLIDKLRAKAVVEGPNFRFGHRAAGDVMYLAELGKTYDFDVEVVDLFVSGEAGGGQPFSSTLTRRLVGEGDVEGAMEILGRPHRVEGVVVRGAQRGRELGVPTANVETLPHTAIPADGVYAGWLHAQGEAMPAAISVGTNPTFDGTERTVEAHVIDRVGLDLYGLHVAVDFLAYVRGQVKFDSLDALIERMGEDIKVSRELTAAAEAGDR

[2] = molecular target: T2, RibF^Cg (Corynebacterium glutamicum, UniProt Q8NP47); test: as above; assay type: biochemical; settings: ATP co-substrate; crude extract of overexpressing C. glutamicum; 10 min
T2 construct: gene Cgl1978; overexpressed from pVWEx1 in C. glutamicum wild type; crude extract
T2 sequence (Q8NP47 1-341): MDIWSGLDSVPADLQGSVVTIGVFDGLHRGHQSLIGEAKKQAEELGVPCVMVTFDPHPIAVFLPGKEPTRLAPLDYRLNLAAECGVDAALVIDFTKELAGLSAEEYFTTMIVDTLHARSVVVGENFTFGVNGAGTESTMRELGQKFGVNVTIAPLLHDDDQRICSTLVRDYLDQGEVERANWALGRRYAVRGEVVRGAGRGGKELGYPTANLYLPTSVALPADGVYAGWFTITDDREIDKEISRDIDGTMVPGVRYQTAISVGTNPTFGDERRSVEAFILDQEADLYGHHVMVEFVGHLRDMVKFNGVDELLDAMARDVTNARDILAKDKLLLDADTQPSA

Row | SMILES | fluorescent ADP detection kinase assay, crude extract [1] | fluorescent ADP detection kinase assay, crude extract [2]
1 | Cc1cc2nc3c(=O)[nH]c(=O)nc-3n(C[C@H](O)[C@H](O)[C@H](O)CO)c2cc1C [riboflavin] | RibF^Sda also showed lower kinase activity in the presence of RF | overexpression of both ribF genes resulted in kinase activity when RF or RoF was added
2 | Cc1cc2nc3c(=O)[nH]c(=O)nc-3n(C[C@H](O)[C@H](O)[C@H](O)CO)c2cc1N(C)C [roseoflavin] | activity of RibF^Sda was significantly lower in the presence of RoF | overexpression of both ribF genes resulted in kinase activity when RF or RoF was added
